Experimental data: ChEMBL document CHEMBL3885881, “DrugMatrix”

Species: Rattus norvegicus
Assay: DrugMatrix - Regimen: Daily Repeat
Assay type: toxicity, organism-based, Sprague-Dawley
Design: regimen Daily Repeat, gender Male, age 6-8 weeks
Settings: in vivo, iv, vehicle 100 % SALINE; for ABSOLUTE BASOPHIL / ABSOLUTE EOSINOPHIL / ABSOLUTE LYMPHOCYTE / ABSOLUTE MONOCYTE / ABSOLUTE SEGMENTED NEUTROPHIL / BASOPHIL / EOSINOPHIL / ERYTHROCYTE COUNT / HEMATOCRIT / HEMOGLOBIN / LEUKOCYTE COUNT / LYMPHOCYTE / MEAN CORPUSCULAR HEMOGLOBIN / MEAN CORPUSCULAR HEMOGLOBIN CONCENTRATION / MEAN CORPUSCULAR VOLUME / MONOCYTE / NEUTROPHIL / NUCLEATED RED BLOOD CELLS / PLATELET COUNT: tissue Blood; for ALANINE AMINOTRANSFERASE / ALBUMIN / ALKALINE PHOSPHATASE / ASPARTATE AMINOTRANSFERASE / BLOOD UREA NITROGEN / CARBON DIOXIDE / CHOLESTEROL / CREATINE PHOSPHOKINASE / CREATININE / GLUCOSE / LACTATE DEHYDROGENASE / LIPASE / PHOSPHORUS / POTASSIUM / SODIUM / TOTAL BILIRUBIN / TOTAL PROTEIN / URIC ACID: tissue Plasma
[1] = 18 mg/kg, 120 h, dose level High, time 5 day
[2] = […], 72 h, dose 7.5 mg/Kg, dose level Low, time 3 day
[3] = […], 120 h, dose 7.5 mg/Kg, dose level Low, time 5 day

N=C(N)c1ccc(OCCCCCOc2ccc(C(=N)N)cc2)cc1 [PENTAMIDINE]
ABSOLUTE BASOPHIL [1]: 0 CELLS/uL
ABSOLUTE EOSINOPHIL [1]: 0 CELLS/uL
ABSOLUTE LYMPHOCYTE [1]: 15017 CELLS/uL
ABSOLUTE MONOCYTE [1]: 444.33 CELLS/uL
ABSOLUTE SEGMENTED NEUTROPHIL [1]: 972 CELLS/uL
BASOPHIL [1]: 0%
EOSINOPHIL [1]: 0%
ERYTHROCYTE COUNT [1]: 6.15 x10E6/uL
HEMATOCRIT [1]: 37.9%
HEMOGLOBIN [1]: 14.2 G/DL
LEUKOCYTE COUNT [1]: 16.43 x10E3/uL
LYMPHOCYTE [1]: 91.33%
MEAN CORPUSCULAR HEMOGLOBIN [1]: 23.07 pg
MEAN CORPUSCULAR HEMOGLOBIN CONCENTRATION [1]: 37.5 G/DL
MEAN CORPUSCULAR VOLUME [1]: 61.53 fL
MONOCYTE [1]: 2.67%
NEUTROPHIL [1]: 6%
NUCLEATED RED BLOOD CELLS [1]: 0 /100WBC
PLATELET COUNT [1]: 1455 x10E3/uL
ALANINE AMINOTRANSFERASE [1]: 44.33 u/L
ALBUMIN [1]: 4.3 G/DL
ALKALINE PHOSPHATASE [1]: 288.33 u/L
ASPARTATE AMINOTRANSFERASE [1]: 71 u/L
BLOOD UREA NITROGEN [1]: 13.67 mg/dL
CARBON DIOXIDE [1]: 26.67 mmol/L
CHOLESTEROL [1]: 57 mg/dL
CREATINE PHOSPHOKINASE [1]: 246.67 u/L
CREATININE [1]: 0.22 mg/dL
GLUCOSE [1]: 166.33 mg/dL
LACTATE DEHYDROGENASE [1]: 175 u/L
LIPASE [1]: 8.67 u/L
PHOSPHORUS [1]: 11.6 mg/dL
POTASSIUM [1]: 5.78 MEQ/L
SODIUM [1]: 146.7 MEQ/L
TOTAL BILIRUBIN [1]: 0.2 mg/dL
TOTAL PROTEIN [1]: 6.13 G/DL
URIC ACID [1]: 1.93 mg/dL
ABSOLUTE BASOPHIL [2]: 0 CELLS/uL
ABSOLUTE EOSINOPHIL [2]: 0 CELLS/uL
ABSOLUTE LYMPHOCYTE [2]: 12540 CELLS/uL
ABSOLUTE MONOCYTE [2]: 234 CELLS/uL
ABSOLUTE SEGMENTED NEUTROPHIL [2]: 1759.33 CELLS/uL
BASOPHIL [2]: 0%
EOSINOPHIL [2]: 0%
ERYTHROCYTE COUNT [2]: 5.88 x10E6/uL
HEMATOCRIT [2]: 37.37%
HEMOGLOBIN [2]: 14.03 G/DL
LEUKOCYTE COUNT [2]: 14.53 x10E3/uL
LYMPHOCYTE [2]: 86.67%
MEAN CORPUSCULAR HEMOGLOBIN [2]: 23.9 pg
MEAN CORPUSCULAR HEMOGLOBIN CONCENTRATION [2]: 37.53 G/DL
MEAN CORPUSCULAR VOLUME [2]: 63.63 fL
MONOCYTE [2]: 1.67%
NEUTROPHIL [2]: 11.67%
NUCLEATED RED BLOOD CELLS [2]: 0 /100WBC
PLATELET COUNT [2]: 1241.67 x10E3/uL
ALANINE AMINOTRANSFERASE [2]: 54.33 u/L
ALBUMIN [2]: 4.63 G/DL
ALKALINE PHOSPHATASE [2]: 393 u/L
ASPARTATE AMINOTRANSFERASE [2]: 80.67 u/L
BLOOD UREA NITROGEN [2]: 15.33 mg/dL
CARBON DIOXIDE [2]: 24.67 mmol/L
CHOLESTEROL [2]: 69.67 mg/dL
CREATINE PHOSPHOKINASE [2]: 265 u/L
CREATININE [2]: 0.17 mg/dL
GLUCOSE [2]: 136.67 mg/dL
LACTATE DEHYDROGENASE [2]: 184 u/L
LIPASE [2]: 9 u/L
PHOSPHORUS [2]: 10.97 mg/dL
POTASSIUM [2]: 6.64 MEQ/L
SODIUM [2]: 143.8 MEQ/L
TOTAL BILIRUBIN [2]: 0.23 mg/dL
TOTAL PROTEIN [2]: 5.83 G/DL
URIC ACID [2]: 1.97 mg/dL
ABSOLUTE BASOPHIL [3]: 0 CELLS/uL
ABSOLUTE EOSINOPHIL [3]: 183 CELLS/uL
ABSOLUTE LYMPHOCYTE [3]: 14369.67 CELLS/uL
ABSOLUTE MONOCYTE [3]: 485 CELLS/uL
ABSOLUTE SEGMENTED NEUTROPHIL [3]: 1795.67 CELLS/uL
BASOPHIL [3]: 0%
EOSINOPHIL [3]: 1%
ERYTHROCYTE COUNT [3]: 5.98 x10E6/uL
HEMATOCRIT [3]: 38.47%
HEMOGLOBIN [3]: 14.17 G/DL
LEUKOCYTE COUNT [3]: 16.83 x10E3/uL
LYMPHOCYTE [3]: 85%
MEAN CORPUSCULAR HEMOGLOBIN [3]: 23.7 pg
MEAN CORPUSCULAR HEMOGLOBIN CONCENTRATION [3]: 36.83 G/DL
MEAN CORPUSCULAR VOLUME [3]: 64.37 fL
MONOCYTE [3]: 3%
NEUTROPHIL [3]: 11%
NUCLEATED RED BLOOD CELLS [3]: 0 /100WBC
PLATELET COUNT [3]: 1425 x10E3/uL
ALANINE AMINOTRANSFERASE [3]: 42.67 u/L
ALBUMIN [3]: 4.57 G/DL
ALKALINE PHOSPHATASE [3]: 364.67 u/L
ASPARTATE AMINOTRANSFERASE [3]: 84.33 u/L
BLOOD UREA NITROGEN [3]: 18.67 mg/dL
CARBON DIOXIDE [3]: 27.67 mmol/L
CHOLESTEROL [3]: 76.67 mg/dL
CREATINE PHOSPHOKINASE [3]: 325 u/L
CREATININE [3]: 0.23 mg/dL
GLUCOSE [3]: 145 mg/dL
LACTATE DEHYDROGENASE [3]: 461.33 u/L
LIPASE [3]: 9 u/L
PHOSPHORUS [3]: 11.17 mg/dL
POTASSIUM [3]: 6.1 MEQ/L
SODIUM [3]: 143.03 MEQ/L
TOTAL BILIRUBIN [3]: 0.23 mg/dL
TOTAL PROTEIN [3]: 6.3 G/DL
URIC ACID [3]: 1.33 mg/dL
